Results published in article PMC6094399, “New tools for carbohydrate sulfation analysis: heparan sulfate 2-O-sulfotransferase (HS2ST) is a target for small-molecule protein kinase inhibitors” (Biochemical Journal, 2018).
Several values for one entry are separate records, joined by “and”; a condition that tells them apart may be missing. Equal entries are not always repeated. Entries after “also recorded” stand apart in the source; their conditions may differ. Where two headings read alike, the source gives them in different places. One block for each molecule: values may come before it.

How the values were obtained:
MBP = experiment: DSF thermal shift control with MBP; assay type: binding; details: 0.5 mM PAPS, 10 μM heparin or 5 mM maltose; result in words
HS2ST [1] = target: T1, HS2ST (Gallus gallus, UniProt Q76KB1); experiment: DSF thermal shift/stability assay of MBP-HS2ST; assay type: binding, Chicken; details: 5 μM MBP-HS2ST; for thermal stabilisation of HS2ST (DSF): result in words
T1 construct: made in house; host or cells: Escherichia coli Rosetta-gami (DE3), modified pMAL-c2x plasmid
T1 sequence (Q76KB1 69-356): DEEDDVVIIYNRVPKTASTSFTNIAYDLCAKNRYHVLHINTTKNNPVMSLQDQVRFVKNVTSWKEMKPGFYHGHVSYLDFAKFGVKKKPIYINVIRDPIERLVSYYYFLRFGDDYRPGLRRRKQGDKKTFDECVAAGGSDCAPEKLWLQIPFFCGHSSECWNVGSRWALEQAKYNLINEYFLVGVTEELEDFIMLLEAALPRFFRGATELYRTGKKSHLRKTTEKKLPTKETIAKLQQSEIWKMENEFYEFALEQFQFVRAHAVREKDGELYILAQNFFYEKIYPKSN

HS2ST [2] = target: T1, HS2ST; experiment: Microfluidic mobility shift sulfation assay with fluorescent hexasaccharide substrate; assay type: biochemical, Chicken; details: for mode of HS2ST inhibition: increasing concentration of PAPS, 10 μM PAP, 0.5 mM CoA or 20 μM rottlerin; for HS2ST inhibition (dose-response): 1 μM PAPS, 15 min at 20°C (Figure 4C); for HS2ST inhibition: concentrations as high as 400 μM (Supplementary Figure S9B)
Excerpt: (§1) N-sulfated, fluorescein-tagged hexasaccharide glycan substrate (GlcNS–GlcA–GlcNS–IdoA–GlcNS–GlcA-fluorescein, where S = sulfation) containing either L-IdoA or D-GlcA residues at the third residue from the reducing end (to which a linker and the fluorophore were conjugated) was both purchased from GLYCAN therapeutics (www.glycantherapeutics.com). […] Chemically modified heparins were generated through a published procedure, whereas oligosaccharides from Iduron were generated enzymatically. Non-radioactive microfluidic mobility shift carbohydrate sulfation assays were optimised in solution with a 12-sipper chip coated with CR8 reagent and a PerkinElmer EZ Reader II system using EDTA-based separation buffer and real-time kinetic evaluation of substrate sulfation. Pressure and voltage settings were adjusted manually to afford optimal separation of the sulfated product and non-sulfated hexasaccharide substrate, with a sample (sip) volume of 20 nl, and total assay times appropriate for the experiment. […] The degree of oligosaccharide sulfation was directly calculated using the EZ Reader software by measuring the sulfo oligosaccharide : oligosaccharide ratio at each time-point. The activity of HS2ST enzymes in the presence of biochemicals and small-molecule inhibitors was quantified in ‘kinetic mode’ by monitoring the amount of sulfated glycan generated over the assay time, relative to control assay with no additional inhibitor molecule (DMSO control). […] Km and IC50 values were determined by nonlinear regression analysis with GraphPad Prism software.
The PKIS chemical library (Supplementary Figure S6, designated as SB, GSK or GW compound sets) comprises 367 largely ATP-competitive kinase inhibitors, covering 31 chemotypes originally designed to inhibit 24 distinct protein kinase targets. Compounds were stored frozen as a 10 mM stock in DMSO. The library is characterised as highly drug-like (∼70% with molecular mass <500 Da and clogP values <5). […] For inhibition assays, competition assays or individual IC50 value determination, a compound range was prepared by serial dilution in DMSO and added directly into the assay to the appropriate final concentration. All control experiments contained 4% (v/v) DMSO, which had essentially no effect on HS2ST activity. Individual chemicals and glycan derivatives were prepared and evaluated using NMR, HPLC, DSF or microfluidics-based assay protocols, as described above.

[3] = tested on: GlcNAc-6-sulfotransferase NodH; details: read-out: Km for PAPS; PAPS-dependent GlcNAc-6-sulfotransferase NodH; cited from earlier work
HS2ST [4] = details: read-out: Km for PAPS; HS2ST using desulfated heparin as a substrate; cited from earlier work
[5] = tested on: catalytic subunit of cAMP-dependent protein kinase (PKAc); experiment: DSF thermal shift of recombinant PKAc; assay type: binding; details: 5 μM PKAc
tyrosyl sulfotransferase = details: read-out: Km for PAPS; tissue-purified tyrosyl sulfotransferase; cited from earlier work
[6] = tested on: hormone iodotyrosine sulfotransferases; details: read-out: Km for PAPS; human hormone iodotyrosine sulfotransferases; cited from earlier work
[7] = substrate: Nc1ncnc2c1ncn2C1OC(COP(=O)(O)OS(=O)(=O)O)C(OP(=O)(O)O)C1O; experiment: Microfluidic mobility shift sulfation assay with fluorescent hexasaccharide substrate; assay type: biochemical, Chicken; details: other: 20 nM HS2ST, fluorescein-labelled IdoA hexasaccharide substrate; pH 7.4
Excerpt: as §1, with “sulfation.” for “sulfation. Pressure and voltage settings were adjusted manually to afford optimal separation of the sulfated product and non-sulfated hexasaccharide substrate, with a sample (sip) volume of 20 nl, and total assay times appropriate for the experiment.”, “software. […]” for “software.”

[8] = nucleotides, 20 nM HS2ST, 10 μM PAPS, absence of MgCl2, 15 min, read-out: IC50
[9] = 20 nM HS2ST, 10 μM PAPS (Figure 3D), read-out: IC50
[10] = positive controls of the PKIS enzyme re-screen (Figure 4B, Supplementary Figures 7 and 8), read-out: IC50

Molecule: OC[C@H]1O[C@H](O[C@H]2[C@H](O)[C@@H](O)C(O)O[C@@H]2CO)[C@H](O)[C@@H](O)[C@@H]1O (mixture of isomers) [maltose]
- thermal stabilisation of MBP (DSF) (MBP): characteristic stabilisation profile

Molecule: Nc1ncnc2c1ncn2[C@@H]1O[C@H](COP(=O)(O)OP(=O)(O)O)[C@@H](O)[C@H]1O [ADP, adenosine 5′-diphosphate]
- thermal stabilisation of HS2ST (DSF) (HS2ST [1]): effective at protecting HS2ST from thermal denaturation

Molecule: Nc1ncnc2c1ncn2[C@@H]1O[C@H](COP(=O)(O)O)[C@@H](O)[C@H]1O [AMP, adenosine 5′-monophosphate]
- thermal stabilisation of HS2ST (DSF) (HS2ST [1]): not

Molecule: Nc1ncnc2c1ncn2[C@@H]1O[C@H](COP(=O)(O)OP(=O)(O)OP(=O)(O)O)[C@@H](O)[C@H]1O [ATP, adenosine 5′-triphosphate]
- IC50 (HS2ST [2]; [8]): 466 µM

Molecule: CC(C)(COP(=O)(O)OP(=O)(O)OC[C@H]1O[C@@H](n2cnc3c(N)ncnc32)[C@H](O)[C@@H]1OP(=O)(O)O)[C@@H](O)C(=O)NCCC(=O)NCCS [CoA, coenzyme A]
- thermal stabilisation of HS2ST (DSF) (HS2ST [1]): clearly induced thermal stabilisation
- mode of HS2ST inhibition (HS2ST [2]): PAPS-competitive mode of inhibition
- IC50 (HS2ST [2]; [8]): 65 µM

Molecule: Nc1nc2c(ncn2[C@@H]2O[C@H](COP(=O)(O)OP(=O)(O)OP(=O)(O)O)[C@@H](O)[C@H]2O)c(=O)[nH]1 [GTP, guanosine 5′-triphosphate]
- thermal stabilisation of HS2ST (DSF) (HS2ST [1]): effective at protecting HS2ST from thermal denaturation

Molecule: O=C1Nc2ccc(I)cc2C1=Cc1cc(Br)c(O)c(Br)c1 [GW305074]
- HS2ST inhibition (dose-response) (HS2ST [2]; 20 nM HS2ST, result in words): mid-micromolar HS2ST inhibitor

Molecule: COC(=O)c1ccc2c(c1)C(=Cc1cc(Br)c(O)c(Br)c1)C(=O)N2 [GW405841X]
- HS2ST inhibition (dose-response) (HS2ST [2]; 20 nM HS2ST, result in words): did not inhibit HS2ST at any concentration tested

Molecule: Nc1ncnc2c1ncn2C1OC(COP(=O)(O)OS(=O)(=O)O)C(OP(=O)(O)O)C1O (stereo not drawn) [PAPS, adenosine 3′-phosphate 5′-phosphosulfate]
- Km [3]: ~4.3 µM
- thermal stabilisation of HS2ST (DSF) (HS2ST [1]): positively shifted (stabilised); also recorded: dose-dependent stabilisation
- Km (HS2ST [4]): 18.5 µM
- thermal stabilisation of PKAc (DSF) ([5]; 0.5 mM PAPS, result in words): did not stabilise
- Km (tyrosyl sulfotransferase): 10 µM
- Km [6]: 1.5 µM
- thermal stabilisation of MBP (DSF) (MBP): neither PAPS nor heparin induced stabilisation

Molecule: CC(=O)c1c(O)c(C)c(O)c(Cc2c(O)c3c(c(C(=O)/C=C/c4ccccc4)c2O)OC(C)(C)C=C3)c1O [rottlerin]
- IC50 (HS2ST [2]; IC50, 20 nM HS2ST, 10 μM PAPS (Figure 3D)): 6.4 µM
- IC50 (HS2ST [2]; IC50, positive control of the PKIS enzyme re-screen (Figure 4B, Supplementary Figures 7 and 8)): ~8 µM
- mode of HS2ST inhibition (HS2ST [2]): competitive mode of HS2ST inhibition

Molecule: CN[C@@H]1C[C@H]2O[C@@](C)([C@@H]1OC)n1c3ccccc3c3c4c(c5c6ccccc6n2c5c31)C(=O)NC4 [staurosporine]
- thermal stabilisation of HS2ST (DSF) (HS2ST [1]): neither the pan-kinase inhibitor staurosporine nor several FDA-approved tyrosine kinase inhibitors caused thermal stabilisation

B1: HS2ST (Gallus gallus) (protein)
chain: T1 sequence (Q76KB1 69-356)
notes: made in house; host or cells: Escherichia coli Rosetta-gami (DE3), modified pMAL-c2x plasmid
- Km [7]: 1.03 ± 0.2 µM and 1 µM and 1.0 µM

Further lines, results first:

- ΔTm (HS2ST [1]; DSF): ~3 °C
- HS2ST enzyme activity (HS2ST [2]; high (>1 mM) concentrations of Mg2+ ions, relative to buffer controls, result in words): concentration-dependent increases
Molecule: [Mg+2] [Mg^2+]

- thermal stabilisation of HS2ST (DSF) (HS2ST [1]): did not abrogate HS2ST binding
- mode of HS2ST inhibition (HS2ST [2]): PAPS-competitive mode of inhibition
- IC50 (HS2ST [2]; [8]): ~2 µM
Molecule: Nc1ncnc2c1ncn2C1OC(COP(=O)(O)O)C(OP(=O)(O)O)C1O (stereo not drawn) [PAP, adenosine 3′–5′-diphosphate]

- thermal stabilisation of HS2ST (DSF) (HS2ST [1]): clearly induced thermal stabilisation
Molecule: CC(=O)SCCNC(=O)CCNC(=O)[C@H](O)C(C)(C)COP(=O)(O)OP(=O)(O)OC[C@H]1O[C@@H](n2cnc3c(N)ncnc32)[C@H](O)[C@@H]1OP(=O)(O)O [acetyl CoA]

- IC50 (HS2ST [2]; [9]): 0.123 ± 0.007 µM
- IC50 (HS2ST [2]; [10]): ~0.09 µM
Molecule: O=C(O)C1=CC(=C(c2ccc(O)c(C(=O)O)c2)c2ccc(O)c(C(=O)O)c2)C=CC1=O [aurintricarboxylate, aurintricarboxylic acid]

- HS2ST inhibition (HS2ST [2]; result in words): unable to inhibit HS2ST
Molecule: CC(C)(C)c1nc(-c2cccc(NS(=O)(=O)c3c(F)cccc3F)c2F)c(-c2ccnc(N)n2)s1 [dabrafenib]

- thermal stabilisation of HS2ST (DSF) (HS2ST [1]): abolished this effect
Molecule: CC(C)(COP(=O)(O)OP(=O)(O)OC[C@H]1O[C@@H](n2cnc3c(N)ncnc32)[C@H](O)[C@@H]1O)[C@@H](O)C(=O)NCCC(=O)NCCS [dephospho-CoA, 3′-dephosphoCoA]

- IC50 (HS2ST [2]; [9]): 0.04 ± 0.001 µM
- IC50 (HS2ST [2]; [10]): ~0.02 µM
Molecule: Cc1ccc(C(=O)Nc2ccc(S(=O)(=O)O)c3cc(S(=O)(=O)O)cc(S(=O)(=O)O)c23)cc1NC(=O)c1cccc(NC(=O)Nc2cccc(C(=O)Nc3cc(C(=O)Nc4ccc(S(=O)(=O)O)c5cc(S(=O)(=O)O)cc(S(=O)(=O)O)c45)ccc3C)c2)c1 [suramin]

- HS2ST inhibition (HS2ST [2]; result in words): unable to inhibit HS2ST
Molecule: CCCS(=O)(=O)Nc1ccc(F)c(C(=O)c2c[nH]c3ncc(-c4ccc(Cl)cc4)cc23)c1F [vemurafenib]

- ΔTm ([5]; 0.5 mM ATP and 10 mM MgCl2): > 4 °C
Molecule: Mg-ATP
